Measured values as given in patent US9422277B2, “Tricyclic substituted thiadiazine dioxide compounds as BACE inhibitors, compositions and their use” (Merck Sharp & Dohme Corp., priority 2012, dated 2016).

Tests used:
[1] = molecular target: soluble human BACE1 catalytic domain (Homo sapiens (Human), UniProt P56817); test: BACE1 HTRF FRET Assay; assay type: biochemical; settings: Ki calculated from IC50 using the Cheng-Prusoff equation
From the text: A homogeneous time-resolved FRET assay can be used to determine IC50 values for inhibitors of the soluble human BACE1 catalytic domain. This assay monitors the increase of 620 nm fluorescence that resulted from BACE1 cleavage of an APPswedish APP^swe mutant peptide FRET substrate (QSY7-[…]-Europium-amide). This substrate contains an N-terminal QSY7 moiety that serves as a quencher of the C-terminal Europium fluorophore (620 nm Em). In the absence of enzyme activity, 620 nm fluorescence is low in the assay and increased linearly over 3 hours in the presence of uninhibited BACE1 enzyme Inhibition of BACE1 cleavage of the QSY7-APP^swe-Eu substrate by inhibitors is manifested as a suppression of 620 nm fluorescence.
Reactions are initiated by addition of 10 μl of 600 nM QSY7-APP^swe-Eu substrate (200 nM final) to give a final reaction volume of 30 μl in a 384 well Nunc HTRF plate. The reactions are incubated at 30° C. for 1.5 hours. The 620 nm fluorescence is then read on a Rubystar HTRF plate reader (BMG Labtechnologies) using a 50 millisecond delay followed by a 400 millisecond acquisition time window Inhibitor IC50 values are derived from non-linear regression analysis of concentration response curves.

[2] = molecular target: purified human autoBACE-2 (Homo sapiens (Human), UniProt Q9Y5Z0); test: BACE-2 Assay (BACE-HTRF assay); assay type: biochemical; settings: Ki calculated from IC50 using the Cheng-Prusoff equation; read-out: BACE2 Ki
Protocol: Inhibitor IC50s at purified human autoBACE-2 are determined in a time-resolved endpoint proteolysis assay that measures hydrolysis of the QSY7-[…]-Eu-amide FRET peptide substrate (BACE-HTRF assay). BACE-mediated hydrolysis of this peptide results in an increase in relative fluorescence (RFU) at 620 nm after excitation with 320 nm light Inhibitor compounds, prepared at 3× the desired final concentration in 1×BACE assay buffer (20 mM sodium acetate pH 5.0, 10% glycerol, 0.1% Brij-35) supplemented with 7.5% DMSO are pre-incubated with an equal volume of autoBACE-2 enzyme diluted in 1×BACE assay buffer (final enzyme concentration 1 nM) in black 384-well NUNC plates for 30 minutes at 30° C. […] DMSO is present at 5% final concentration in the assay. Following laser excitation of sample wells at 320 nm, the fluorescence signal at 620 nm is collected for 400 ms following a 50 μs delay on a RUBYstar HTRF plate reader (BMG Labtechnologies). Raw RFU data is normalized to maximum (1.0 nM BACE/DMSO) and minimum (no enzyme/DMSO) RFU values. IC50s are determined by nonlinear regression analysis (sigmoidal dose response, variable slope) of percent inhibition data with minimum and maximum values set to 0 and 100 percent respectively. Similar IC50s are obtained when using raw RFU data. The Ki values are calculated from the IC50 using the Cheng-Prusoff equation.

Sequence of soluble human BACE1 catalytic domain (P56817 75-416): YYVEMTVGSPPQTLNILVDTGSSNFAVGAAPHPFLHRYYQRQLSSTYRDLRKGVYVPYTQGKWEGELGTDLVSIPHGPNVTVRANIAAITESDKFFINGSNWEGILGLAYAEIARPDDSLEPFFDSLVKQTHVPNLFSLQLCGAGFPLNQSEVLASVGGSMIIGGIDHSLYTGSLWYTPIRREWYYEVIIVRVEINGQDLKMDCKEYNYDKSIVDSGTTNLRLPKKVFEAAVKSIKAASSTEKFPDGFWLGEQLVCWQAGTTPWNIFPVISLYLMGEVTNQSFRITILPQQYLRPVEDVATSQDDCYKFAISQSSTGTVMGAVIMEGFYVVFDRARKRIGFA
Sequence of purified human autoBACE-2 (Q9Y5Z0 63-473 limits assumed): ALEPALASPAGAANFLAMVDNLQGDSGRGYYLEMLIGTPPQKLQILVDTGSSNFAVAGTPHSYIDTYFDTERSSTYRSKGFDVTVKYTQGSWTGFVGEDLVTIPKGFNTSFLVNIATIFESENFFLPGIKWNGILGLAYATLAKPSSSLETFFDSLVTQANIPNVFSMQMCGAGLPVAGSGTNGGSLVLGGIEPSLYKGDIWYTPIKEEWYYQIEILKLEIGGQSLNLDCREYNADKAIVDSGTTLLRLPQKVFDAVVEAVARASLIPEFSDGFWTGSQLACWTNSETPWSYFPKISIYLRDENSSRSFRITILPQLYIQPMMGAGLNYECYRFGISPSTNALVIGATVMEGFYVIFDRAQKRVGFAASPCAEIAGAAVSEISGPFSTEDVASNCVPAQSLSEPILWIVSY

Work on `CN1C(=N)N[C@](C)(c2sc(-c3cn(-c4ccccc4)nn3)cc2Cl)CS1(=O)=O` [Example 5] yielded a Ki [1] of 1980 nM and a Ki [2] of 281 nM.
`CN1C(=N)N[C@](C)(c2sc3c(-c4cnn(-c5ccccc5)c4)cccc3c2F)CS1(=O)=O` [Example 81] showed a Ki [1] of 1460 nM and a Ki [2] of 337 nM.
With `Cc1nnc(-c2ccc(-c3cc(Cl)c([C@]4(C)CS(=O)(=O)N(C)C(=N)N4)s3)[nH]2)o1` [Example 9] the Ki [1] was 8.1 nM and the Ki [2] was 8.24 nM.
Molecule `CC(C)c1ccc(-c2nnc(-c3cc(Cl)c([C@]4(C)CS(=O)(=O)N(C)C(=N)N4)s3)o2)cc1` [Example 56] has a Ki [1] of 359 nM and a Ki [2] of 889 nM.
`CN1C(=N)N[C@](C)(c2sc(-c3nnc(-c4ccc(C#N)cc4)o3)cc2Cl)CS1(=O)=O` [Example 23] showed a Ki [1] of 34.6 nM and a Ki [2] of 44.9 nM.
In the case of `CCCOc1ccc(-c2nnc(-c3cc(Cl)c([C@]4(C)CS(=O)(=O)N(C)C(=N)N4)s3)o2)cc1` [Example 62], the Ki [1] is reported as 84.2 nM and the Ki [2] is reported as 313 nM.
Molecule `CN1C(=N)N[C@](C)(c2cc(-c3cc(-c4ccccc4)on3)ccc2F)CS1(=O)=O` [Example 15] has a Ki [1] of 326 nM and a Ki [2] of 52.6 nM.
`CN1C(=N)N[C@](C)(c2sc(-c3nnc(-c4ccc(-n5cccn5)cc4)o3)cc2Cl)CS1(=O)=O` [Example 71] was tested, and the Ki [1] was 155 nM and the Ki [2] was 181 nM.
For `CN1C(=N)N[C@](C)(c2sc(-c3nnc(-c4ccc(-c5noc(C(F)(F)F)n5)cc4)o3)cc2Cl)CS1(=O)=O` [Example 77], the Ki [1] was 258 nM and the Ki [2] was 1280 nM.
`CN1C(=N)N[C@](C)(c2cc(-c3nnc(-c4cscn4)o3)ccc2F)CS1(=O)=O` [Example 51] showed a Ki [1] of 8600 nM and a Ki [2] of 1540 nM.
With `CN1C(=N)N[C@](C)(c2sc(-c3cc(-c4ccccc4)no3)cc2Cl)CS1(=O)=O` [Example 14] the Ki [1] was 943 nM and the Ki [2] was 144 nM.
For `CN1C(=N)N[C@](C)(c2sc(-c3nnc(-c4ccc(N5CCCC5=O)cc4)o3)cc2Cl)CS1(=O)=O` [Example 69], the Ki [1] was 1030 nM and the Ki [2] was 1070 nM.
With `CN1C(=N)N[C@](C)(c2sc(-c3nnc(-c4ccc(C5CCC(F)(F)C5)cc4)o3)cc2Cl)CS1(=O)=O` (some centres unmarked) [Example 67] the Ki [1] was 1110 nM and the Ki [2] was 1870 nM.
`CN1C(=N)N[C@](C)(c2cc(-c3nnc(-c4nccs4)o3)ccc2F)CS1(=O)=O` [Example 49] was tested, and the Ki [1] was 4000 nM and the Ki [2] was 490 nM.
`CC1CN=C(c2ccc(-c3cc(Cl)c([C@]4(C)CS(=O)(=O)N(C)C(=N)N4)s3)[nH]2)O1` (some centres unmarked) [Example 7] gave a Ki [1] of 87 nM and a Ki [2] of 35 nM.
`CN1C(=N)N[C@](C)(c2sc(-c3ccc(-c4ccccc4)[nH]3)cc2Cl)CS1(=O)=O` [Example 1] showed a Ki [1] of 2.1 nM and a Ki [2] of 0.69 nM.
`CN1C(=N)N[C@](C)(c2cc(-c3nnc(-c4cocn4)o3)ccc2F)CS1(=O)=O` [Example 54] was tested, and the Ki [1] was 7550 nM and the Ki [2] was 1690 nM.
`CN1C(=N)N[C@](C)(c2sc(-c3ccc(-c4nnc(C5CC5)o4)[nH]3)cc2Cl)CS1(=O)=O` [Example 10] gave a Ki [1] of 87 nM and a Ki [2] of 11.3 nM.
With `CC(C)Oc1ccc(-c2nnc(-c3cc(Cl)c([C@]4(C)CS(=O)(=O)N(C)C(=N)N4)s3)o2)cc1` [Example 60] the Ki [1] was 205 nM and the Ki [2] was 533 nM.
`CN1C(=N)N[C@](C)(c2sc(-c3nnc(-c4cnco4)o3)cc2Cl)CS1(=O)=O` [Example 40] gave a Ki [1] of 250 nM and a Ki [2] of 142 nM.
For `CN1C(=N)N[C@](C)(c2sc3c(-c4coc(-c5ccc(F)cc5)n4)cccc3c2F)CS1(=O)=O` [Example 82], the Ki [1] was 4890 nM and the Ki [2] was 2940 nM.
Molecule `CN1C(=N)N[C@](C)(c2sc(-c3nnc(-c4ncco4)o3)cc2Cl)CS1(=O)=O` [Example 41] has a Ki [1] of 441 nM and a Ki [2] of 31.7 nM.
Molecule `CN1C(=N)N[C@](C)(c2sc(-c3cc(-c4ccccc4)on3)cc2Cl)CS1(=O)=O` [Example 12] has a Ki [1] of 1170 nM and a Ki [2] of 364 nM.
Molecule `CN1C(=N)N[C@](C)(c2sc(-c3[nH]cnc3-c3ccccc3)cc2Cl)CS1(=O)=O` [Example 4] has a Ki [1] of 9030 nM and a Ki [2] of 3120 nM.
`CN1C(=N)N[C@](C)(c2sc(-c3ncc(-c4ccccc4)[nH]3)cc2Cl)CS1(=O)=O` [Example 2] gave a Ki [1] of 112 nM and a Ki [2] of 14.8 nM.
`CN1C(=N)N[C@](C)(c2sc(-c3nnc(C4Cc5ccccc5C4)o3)cc2Cl)CS1(=O)=O` [Example 38] was tested, and the Ki [1] was 255 nM and the Ki [2] was 124 nM.
Work on `CN1C(=N)N[C@](C)(c2sc(-c3nnc(C4CC4)o3)cc2Cl)CS1(=O)=O` [Example 48] yielded a Ki [1] of 882 nM and a Ki [2] of 116 nM.
`CN1C(=N)N[C@](C)(c2sc(-c3nnc(-c4ccc(OCc5ccccc5)cc4)o3)cc2Cl)CS1(=O)=O` [Example 63] showed a Ki [1] of 227 nM and a Ki [2] of 527 nM.
Work on `CN1C(=N)N[C@](C)(c2sc(-c3nnc(-c4ccncc4)o3)cc2Cl)CS1(=O)=O` [Example 28] yielded a Ki [1] of 558 nM and a Ki [2] of 332 nM.
Work on `CN1C(=N)N[C@](C)(c2cc(-c3nnc(-c4ccc(Cl)cc4)o3)ccc2F)CS1(=O)=O` [Example 25] yielded a Ki [1] of 2590 nM and a Ki [2] of 595 nM.
`CN1C(=N)N[C@](C)(c2sc(-c3ccc(C4=NCCO4)[nH]3)cc2Cl)CS1(=O)=O` [Example 6] was tested, and the Ki [1] was 270 nM and the Ki [2] was 69 nM.
In the case of `CN1C(=N)N[C@](C)(c2sc(-c3nnc(-c4ccc(N5CCCCC5)cc4)o3)cc2Cl)CS1(=O)=O` [Example 68], the Ki [1] is reported as 5360 nM and the Ki [2] is reported as 2990 nM.
`CN1C(=N)N[C@](C)(c2sc(-c3nnc(-c4ccccn4)o3)cc2Cl)CS1(=O)=O` [Example 21] was tested, and the Ki [1] was 555 nM and the Ki [2] was 58.4 nM.
Work on `CN1C(=N)N[C@](C)(c2sc(-c3nnc(-c4ncccn4)o3)cc2Cl)CS1(=O)=O` [Example 36] yielded a Ki [1] of 778 nM and a Ki [2] of 104 nM.
`COC(=O)Cc1ccc(-c2nnc(-c3cc(Cl)c([C@]4(C)CS(=O)(=O)N(C)C(=N)N4)s3)o2)cc1` [Example 80] was tested, and the Ki [1] was 138 nM and the Ki [2] was 671 nM.
`CN1C(=N)N[C@](C)(c2sc(-c3nnc(-c4ccon4)o3)cc2Cl)CS1(=O)=O` [Example 44] was tested, and the Ki [1] was 1340 nM and the Ki [2] was 156 nM.
For `CN1C(=N)N[C@](C)(c2sc(-c3nnc(-c4ccc(C(F)(F)F)cn4)o3)cc2Cl)CS1(=O)=O` [Example 75], the Ki [1] was 164 nM and the Ki [2] was 303 nM.
Work on `CN1C(=N)N[C@](C)(c2cc(-c3nnc(-c4cncs4)o3)ccc2F)CS1(=O)=O` [Example 50] yielded a Ki [1] of 9920 nM and a Ki [2] of 4220 nM.
`CN1C(=N)N[C@](C)(c2cc(-c3nnc(-c4cnco4)o3)ccc2F)CS1(=O)=O` [Example 26] showed a Ki [1] of 1240 nM and a Ki [2] of 802 nM.
`CN1C(=N)N[C@](C)(c2cc(-c3nnc(C4Cc5ccccc5C4)o3)ccc2F)CS1(=O)=O` [Example 52] was tested, and the Ki [1] was 7690 nM and the Ki [2] was 2680 nM.
For `CN1C(=N)N[C@](C)(c2sc(-c3nnc(-c4ccc5c(c4)C(=O)CC5)o3)cc2Cl)CS1(=O)=O` [Example 74], the Ki [1] was 887 nM and the Ki [2] was 1990 nM.
Molecule `CN1C(=N)N[C@](C)(c2sc(-c3ccc(-c4nnco4)[nH]3)cc2Cl)CS1(=O)=O` [Example 8] has a Ki [1] of 2.8 nM and a Ki [2] of 10.9 nM.
For `CN1C(=N)N[C@](C)(c2sc3c(-c4cnc(-c5ccc(F)cc5)o4)cccc3c2F)CS1(=O)=O` [Example 83], the Ki [1] was 3180 nM and the Ki [2] was 3320 nM.
With `CN1C(=N)N[C@](C)(c2cc(-c3nnc(-c4ncco4)o3)ccc2F)CS1(=O)=O` [Example 53] the Ki [1] was 3420 nM and the Ki [2] was 186 nM.
For `CN1C(=N)N[C@](C)(c2sc(-c3ncc(-c4ccccn4)[nH]3)cc2Cl)CS1(=O)=O` [Example 3], the Ki [1] was 470 nM and the Ki [2] was 87.9 nM.
In the case of `CN1C(=N)N[C@](C)(c2sc(-c3nnc(-c4ccncn4)o3)cc2Cl)CS1(=O)=O` [Example 43], the Ki [1] is reported as 822 nM and the Ki [2] is reported as 305 nM.
